In PubChem BioAssay AID1259407 (Chemical Carcinogenesis Research Information System (CCRIS), 2018):
Activity calls are given as the source filed them. The rule behind the calls is not given here.

System: CCRIS mutagenicity, Ames/micronucleus/aberration tests
Experiment: CCRIS mutagenicity studies
[1] = Test System: AMES SALMONELLA TYPHIMURIUM, Strain/Indicator: TA98, Metabolic Activation: NONE, Method: STANDARD PLATE
[2] = Test System: AMES SALMONELLA TYPHIMURIUM, Strain/Indicator: TA98, Metabolic Activation: RAT, LIVER, S-9, AROCLOR 1254, Method: STANDARD PLATE
[3] = Test System: AMES SALMONELLA TYPHIMURIUM, Strain/Indicator: TA100, Metabolic Activation: NONE, Method: STANDARD PLATE
[4] = Test System: AMES SALMONELLA TYPHIMURIUM, Strain/Indicator: TA100, Metabolic Activation: RAT, LIVER, S-9, AROCLOR 1254, Method: STANDARD PLATE
[5] = Test System: MOUSE LYMPHOMA, Strain/Indicator: L5178Y (TK+/TK-), Metabolic Activation: NONE, Method: SUSPENSION/PLATE
[6] = Test System: MOUSE LYMPHOMA, Strain/Indicator: L5178Y (TK+/TK-), Metabolic Activation: RAT, LIVER, S-9, AROCLOR 1254, Method: SUSPENSION/PLATE

CCC(C)ON=O (stereo not given)
mutagenic call (Test System: AMES SALMONELLA TYPHIMURIUM, Strain/Indicator: TA98, Metabolic Activation: HAMSTER, LIVER, S-9, AROCLOR 1254, Method: STANDARD PLATE): inactive; negative
mutagenic call [1]: inactive; negative
mutagenic call [2]: inactive; negative
mutagenic call (Test System: AMES SALMONELLA TYPHIMURIUM, Strain/Indicator: TA100, Metabolic Activation: HAMSTER, LIVER, S-9, AROCLOR 1254, Method: STANDARD PLATE): inactive; negative
mutagenic call [3]: inactive; negative
mutagenic call [4]: inactive; negative
mutagenic call (Test System: AMES SALMONELLA TYPHIMURIUM, Strain/Indicator: TA1535, Metabolic Activation: HAMSTER, LIVER, S-9, AROCLOR 1254, Method: STANDARD PLATE): active; positive
mutagenic call (Test System: AMES SALMONELLA TYPHIMURIUM, Strain/Indicator: TA1535, Metabolic Activation: NONE, Method: STANDARD PLATE): inactive; negative
mutagenic call (Test System: AMES SALMONELLA TYPHIMURIUM, Strain/Indicator: TA1535, Metabolic Activation: RAT, LIVER, S-9, AROCLOR 1254, Method: STANDARD PLATE): active; positive
mutagenic call (Test System: AMES SALMONELLA TYPHIMURIUM, Strain/Indicator: TA1537, Metabolic Activation: HAMSTER, LIVER, S-9, AROCLOR 1254, Method: STANDARD PLATE): inactive; negative
mutagenic call (Test System: AMES SALMONELLA TYPHIMURIUM, Strain/Indicator: TA1537, Metabolic Activation: NONE, Method: STANDARD PLATE): inactive; negative
mutagenic call (Test System: AMES SALMONELLA TYPHIMURIUM, Strain/Indicator: TA1537, Metabolic Activation: RAT, LIVER, S-9, AROCLOR 1254, Method: STANDARD PLATE): inactive; negative
mutagenic call [5]: active; positive. reevaluation of results: positive
mutagenic call [6]: active; positive. reevaluation of results: positive

c1ccc2cc3c(ccc4ccccc43)cc2c1
mutagenic call [1]: inactive; negative
mutagenic call (Test System: AMES SALMONELLA TYPHIMURIUM, Strain/Indicator: TA98, Method: STANDARD PLATE): active; positive
mutagenic call [3]: inactive; negative
mutagenic call (Test System: AMES SALMONELLA TYPHIMURIUM, Strain/Indicator: TA100, Metabolic Activation: RAT, INTACT HEPATOCYTES, AROCLOR 1254, Method: PREINCUBATION): active; positive
mutagenic call (Test System: AMES SALMONELLA TYPHIMURIUM, Strain/Indicator: TA100, Metabolic Activation: RAT, LIVER, S-9, 3-METHYLCHOLANTHRENE, Method: STANDARD PLATE): active; positive
mutagenic call [4]: active; positive
mutagenic call (Test System: AMES SALMONELLA TYPHIMURIUM, Strain/Indicator: TA100, Metabolic Activation: RAT, LIVER, S-9, PHENOBARBITAL, Method: STANDARD PLATE): inactive; negative
mutagenic call (Test System: AMES SALMONELLA TYPHIMURIUM, Strain/Indicator: TA100, Metabolic Activation: RAT, NADPH-FORTIFIED HOMOGENIZED HEPATOCYTES, AROCLOR 1254, Method: PREINCUBATION): active; positive
mutagenic call (Test System: AMES SALMONELLA TYPHIMURIUM, Strain/Indicator: TA100, Metabolic Activation: RAT, SONICATED HEPATOCYTES, AROCLOR 1254, Method: PREINCUBATION): active; positive
mutagenic call (Test System: AMES SALMONELLA TYPHIMURIUM, Strain/Indicator: TA100, Method: STANDARD PLATE): active; positive
mutagenic call (Test System: AMES SALMONELLA TYPHIMURIUM, Strain/Indicator: TA1537, Metabolic Activation: MOUSE, LIVER, S-9, Method: STANDARD PLATE): active; positive
mutagenic call (Test System: AMES SALMONELLA TYPHIMURIUM, Strain/Indicator: TA1538, Metabolic Activation: NONE, Method: STANDARD PLATE): inactive; negative
mutagenic call (Test System: AMES SALMONELLA TYPHIMURIUM, Strain/Indicator: TA1538, Metabolic Activation: RAT, LIVER, S-9, AROCLOR 1254, Method: STANDARD PLATE): inactive; negative
mutagenic call (Test System: AMES SALMONELLA TYPHIMURIUM, Strain/Indicator: TA1538, Metabolic Activation: RAT, LIVER, S-9, PHENOBARBITAL, Method: STANDARD PLATE): active; positive
mutagenic call (Test System: CHINESE HAMSTER V-79, Strain/Indicator: V-79/6-THIOGUANINE, Metabolic Activation: RAT, LIVER, S-9, PHENOBARBITAL, Method: STANDARD PLATE): active; positive
mutagenic call (Test System: CHINESE HAMSTER V-79, Strain/Indicator: V-79/OUABAIN, Metabolic Activation: CELL-MEDIATED, Method: STANDARD PLATE): active; positive
mutagenic call (Test System: E. COLI, Strain/Indicator: WP2 UVRA, Metabolic Activation: HAMSTER, LIVER, S-9, AROCLOR 1254, Method: STANDARD PLATE): inactive; negative
mutagenic call (Test System: E. COLI, Strain/Indicator: WP2 UVRA, Metabolic Activation: HAMSTER, LIVER, S-9, Method: STANDARD PLATE): inactive; negative
mutagenic call (Test System: E. COLI, Strain/Indicator: WP2 UVRA, Metabolic Activation: MOUSE, LIVER, S-9, AROCLOR 1254, Method: STANDARD PLATE): inactive; negative
mutagenic call (Test System: E. COLI, Strain/Indicator: WP2 UVRA, Metabolic Activation: MOUSE, LIVER, S-9, Method: STANDARD PLATE): inactive; negative
mutagenic call (Test System: E. COLI, Strain/Indicator: WP2 UVRA, Metabolic Activation: NONE, Method: STANDARD PLATE): inactive; negative
mutagenic call (Test System: E. COLI, Strain/Indicator: WP2 UVRA, Metabolic Activation: RAT, LIVER, S-9, AROCLOR 1254, Method: STANDARD PLATE): inactive; negative
mutagenic call (Test System: E. COLI, Strain/Indicator: WP2 UVRA, Metabolic Activation: RAT, LIVER, S-9, Method: STANDARD PLATE): inactive; negative
mutagenic call [5]: active; positive
mutagenic call [6]: active; positive
mutagenic call (Test System: MOUSE LYMPHOMA, Strain/Indicator: L5178Y (TK+/TK-), Metabolic Activation: RAT, LIVER, S-9, Method: SUSPENSION/PLATE): active; positive

c1ccc2c(c1)-c1cccc3cccc-2c13
mutagenic call (Test System: AMES SALMONELLA TYPHIMURIUM, Strain/Indicator: TA97, Metabolic Activation: NONE, Method: STANDARD PLATE): inactive; negative
mutagenic call (Test System: AMES SALMONELLA TYPHIMURIUM, Strain/Indicator: TA97, Metabolic Activation: RAT, LIVER, S-9, AROCLOR 1254, Method: TAPED-PLATE): active; positive
mutagenic call (Test System: AMES SALMONELLA TYPHIMURIUM, Strain/Indicator: TA97, Metabolic Activation: RAT, LIVER, S-9, PCB, Method: STANDARD PLATE): active; positive
mutagenic call [1]: inactive; negative
mutagenic call (Test System: AMES SALMONELLA TYPHIMURIUM, Strain/Indicator: TA98, Metabolic Activation: RAT, LIVER, S-9, AROCLOR 1254 (4%), Method: STANDARD PLATE): inactive; negative
mutagenic call (Test System: AMES SALMONELLA TYPHIMURIUM, Strain/Indicator: TA98, Metabolic Activation: RAT, LIVER, S-9, AROCLOR 1254, Method: FLUCTUATION): active; positive
mutagenic call (Test System: AMES SALMONELLA TYPHIMURIUM, Strain/Indicator: TA98, Metabolic Activation: RAT, LIVER, S-9, AROCLOR 1254, Method: TAPED-PLATE): active; positive
mutagenic call (Test System: AMES SALMONELLA TYPHIMURIUM, Strain/Indicator: TA98, Metabolic Activation: RAT, LIVER, S-9, PCB, Method: STANDARD PLATE): active; positive
mutagenic call [3]: inactive; negative
mutagenic call (Test System: AMES SALMONELLA TYPHIMURIUM, Strain/Indicator: TA100, Metabolic Activation: RAT, LIVER, S-9, AROCLOR 1254, Method: FLUCTUATION): active; positive
mutagenic call (Test System: AMES SALMONELLA TYPHIMURIUM, Strain/Indicator: TA100, Metabolic Activation: RAT, LIVER, S-9, AROCLOR 1254, Method: TAPED-PLATE): active; positive
mutagenic call (Test System: AMES SALMONELLA TYPHIMURIUM, Strain/Indicator: TA100, Metabolic Activation: RAT, LIVER, S-9, PCB, Method: STANDARD PLATE): active; positive
mutagenic call (Test System: AMES SALMONELLA TYPHIMURIUM, Strain/Indicator: TA102, Metabolic Activation: RAT, LIVER, S-9, AROCLOR 1254, Method: TAPED-PLATE): inactive; negative
mutagenic call (Test System: AMES SALMONELLA TYPHIMURIUM, Strain/Indicator: TA1535, Metabolic Activation: RAT, LIVER, S-9, AROCLOR 1254, Method: TAPED-PLATE): inactive; negative
mutagenic call (Test System: AMES SALMONELLA TYPHIMURIUM, Strain/Indicator: TA1537, Metabolic Activation: RAT, LIVER, S-9, AROCLOR 1254, Method: TAPED-PLATE): active; positive
mutagenic call (Test System: UDS RAT HEPATOCYTES, Strain/Indicator: THY INCORP, Metabolic Activation: NONE, Method: IN VIVO-IN VITRO): inactive; negative

NC(=O)CCC(=O)Nc1ccc(Cl)c(Cl)c1Cl
mutagenic call [1]: inactive; negative
mutagenic call [2]: inactive; negative
mutagenic call [3]: inactive; negative
mutagenic call [4]: inactive; negative
